From patent US12648943B2, “Treatment of adrenocortical carcinoma with selective glucocorticoid receptor modulators (SGRMs) and antibody checkpoint inhibitors” (Corcept Therapeutics Incorporated, priority 2020, dated 2026)
Entries after “also recorded” stand apart in the source; their conditions may differ.

How the values were obtained:
human NK cells [1] = test: Activation of isolated human NK cells stimulated with IL-2 (CD25+CD69+ cells); format: cell-based; conditions: NK cells from healthy donors, IL-2 stimulated; cortisol alone or cortisol plus relacorilant; Mann-Whitney p=0.0039
Method: (§1) Given the prominent suppression of NK related genes in GC+ cases, the direct effects of GR modulation of human NK cells were assessed. NK cells were isolated from healthy donors and stimulated with IL-2. Activation (abundance of CD25+CD69+ cells) was increased by stimulation, suppressed by cortisol, and restored by relacorilant (Mann-Whitney p=0.0039) (FIG. 11A). […] (FIG. 12D).

human NK cells [2] = test: Proliferation of isolated human NK cells stimulated with IL-2; format: cell-based; conditions: NK cells from healthy donors, IL-2 stimulated; cortisol alone or cortisol plus relacorilant; Mann-Whitney p=0.0099
Method: as §1

human NK cells [3] = test: Cytokine secretion by isolated human NK cells stimulated with IL-2; format: cell-based; conditions: for Cytokine secretion (both transcript and secreted protein): cortisol alone or cortisol plus relacorilant
Method: as §1

human NK cells [4] = test: Gene expression in isolated human NK cells stimulated with IL-2; format: cell-based; conditions: for Expression of IL2RA (IL2 receptor) / Expression of LAG3 / Transcription of IFNG (IFNγ): IL-2 stimulated human NK cells; for Expression of IL2RA (IL2 receptor) / Expression of LAG3 / Transcription of IFNG (IFNγ) / Expression of 4-1BB (CD137 tnfrsf9): cortisol alone or cortisol plus relacorilant; for Expression of 4-1BB (CD137 tnfrsf9): stimulated human NK cells
Method: as §1

K562 tumor cells = test: K562 tumor cell killing by human NK cells in vitro; format: cell-based; conditions: for Tumor cell killing by NK cells at 5:1 ratio: 5:1 effector:tumor cell ratio, Mann-Whitney p=0.004; for Tumor cell killing by NK cells: various NK:tumor cell ratios, cortisol alone or cortisol plus relacorilant
Method: Activation, proliferation, and cytokine secretion are all indicative of a functional change in NK cells mediated by cortisol and relacorilant. To determine if this functional change also affected target cell killing, NK cells were incubated with K562 tumor cells. At various NK:tumor cell ratios, cortisol suppressed tumor cell killing and relacorilant restored it (FIG. 13A). […] Thus, glucocorticoids suppress tumor cell killing by human NK cells in vitro.

[5] = system: tyrosine aminotransferase (TAT) in HepG2 cells; conditions: cited from earlier work
[6] = IL-2 stimulated human NK cells, relacorilant relative to cortisol alone

Structure (SMILES)	NK cell activation (abundance of CD25+CD69+ cells) (human NK cells [1])	Proliferation of NK cells (human NK cells [2])	Cytokine secretion (both transcript and secreted protein) (human NK cells [3]; IL-2 stimulated human NK cells)	interferon γ (IFNγ) secretion (human NK cells [3]; [6])	Secretion of other effector cytokines (human NK cells [3]; human NK cells)	Expression of IL2RA (IL2 receptor) (human NK cells [4])	Expression of LAG3 (human NK cells [4])	Transcription of IFNG (IFNγ) (human NK cells [4])	Expression of chemokine ligand 3-like 1 (ccl3l1) (human NK cells [4]; stimulated NK cells)	Expression of 4-1BB (CD137 tnfrsf9) (human NK cells [4])	Tumor cell killing by NK cells at 5:1 ratio (K562 tumor cells)	Tumor cell killing by NK cells (K562 tumor cells)	Activity of tyrosine aminotransferase (TAT) [5]	Granzyme A secretion (human NK cells [3]; [6])	tumor necrosis factor (TNFα) secretion (human NK cells [3]; [6])
C[C@]12CCC(=O)C=C1CC[C@@H]1[C@@H]2[C@@H](O)C[C@@]2(C)[C@H]1CC[C@]2(O)C(=O)CO [cortisol, reference compound]	suppressed	suppressed	suppressed	suppressed	suppressed	suppressed	suppressed	suppressed	suppressed	suppressed	significant decrease	suppressed			
CC#C[C@]1(O)CC[C@H]2[C@@H]3CCC4=CC(=O)CCC4=C3[C@@H](c3ccc(N(C)C)cc3)C[C@@]21C [mifepristone]													decreases		
Cn1cc(S(=O)(=O)N2CCC3=Cc4c(cnn4-c4ccc(F)cc4)C[C@]3(C(=O)c3cc(C(F)(F)F)ccn3)C2)cn1 [relacorilant, (R)-(1-(4-fluorophenyl)-6-((1-methyl-1H-pyrazol-4-yl)sulfonyl)-4,4a,5,6,7,8-hexahydro-1H-pyrazolo[3,4-g]isoquinolin-4a-yl)(4-(trifluoromethyl)pyridin-2-yl)methanone]	restore; also recorded: significantly improved	restore; also recorded: significantly improved	restored	improved		restored; also recorded: improved	restored; also recorded: promoted; also recorded: improved	improved		promoted	significant improvement; also recorded: counteracted	restore; also recorded: counteracted		improved	improved
